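Compound exposure: 48 hours, 5 concentrations, 96-well plates. At the GI50, growth is halved. The concentration for full growth arrest is given as TGI.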 Bounds are passed on as bounds.

Common to all, as to experiment: growth of human tumour cells (NCI), 48 h
The subject of assay [1] is SW-620 colon.
Assay [2] concerns RPMI-8226 leukemia.
Assay [3] has as its system SNB-19 CNS.
Assay [4] deals with SK-MEL-5 melanoma.
The subject of assay [5] is CCRF-CEM leukemia.
Assay [6] deals with SK-MEL-28 melanoma.
Assay [7] has as its system MOLT-4 leukemia.
For assay [8], the system named is A549 NSCLC.
Assay [9] has as its system SF-268 CNS.

As for `COC(=O)/C=C1\SC(=Nc2ccc(C(F)(F)F)cc2)N(CCc2c[nH]c3ccccc23)C1=O`, the GI50 is 1.57 µM in assay [1]; 1.13 µM in assay [2]; 1.78 µM in [3]; 1.69 µM in assay [4]; 1.95 µM in assay [5]; 1.87 µM in assay [6]. Moreover, the GI50 in [7] was 1.22 µM; in [8], 2.01 µM; in assay [9] it was 1.78 µM. For the same compound, the TGI was 3.29 µM in assay [1]; 4.3 µM in assay [2]; 3.45 µM in assay [3]; 3.06 µM in [4]; 7.22 µM in assay [5]; 3.55 µM in assay [6]. For the same compound, the TGI in assay [7] amounted to 5.51 µM; in assay [8] it was 4.8 µM; in [9], 3.67 µM.
As for `Cc1ccc(C)c(-n2c(-c3ccc(Br)cc3)csc2=NC(=O)c2ccccc2F)c1`, the GI50 in assay [1] is over 100 µM; in assay [3], over 100 µM; in assay [4], 2.62 µM; in [6], over 100 µM; in assay [8], over 100 µM; in [9] it was over 100 µM. Further, the TGI in [1], in assay [3], in assay [4], in [6], in [8] and in [9] was over 100 µM throughout.
Consider `O=C1CCCSCCCC(=O)CCCSCCC1`, for which the TGI in assay [1], in assay [3], in [4], in assay [5], in [6] and in [7] was over 100 µM throughout. In addition, the TGI in assay [8] and in [9] was over 100 µM in each case.
Consider `O=C1C(c2ccc(Cl)cc2)=[N+]([O-])c2ccccc21`, for which the TGI in [1] is 62.1 µM; in [2], over 100 µM; in assay [3], 53.8 µM; in assay [4], 26.6 µM; in [5], 25.5 µM; in assay [6] it was 28.5 µM. Further, the TGI in [7] is over 100 µM; in [8], 37.7 µM; in assay [9], 28.8 µM.
On to `C=CC[P@@]1(=O)O[C@H](c2ccccc2)C(C)N1C(C)C` (some centres undefined), for which the TGI in assay [1], in assay [2], in assay [3], in assay [4], in [5] and in assay [6] was over 100 µM throughout. Further, the TGI in assay [7], in assay [8] and in [9] was over 100 µM in each case.
With `COCC1N=C(c2ccc(OC)c(OCc3ccccc3)c2OC)O[C@H]1c1ccccc1` (some centres undefined), the TGI is over 100 µM in assay [1]; 36.9 µM in assay [2]; over 100 µM in assay [3]; 25.7 µM in assay [4]; 60.8 µM in [5]; 69.8 µM in assay [6]. The TGI was 23.3 µM in assay [7], over 100 µM in assay [8] and over 100 µM in assay [9].
In the case of `CCCOP1(=O)C=C(C)C(Cl)=C(C)C1` (centres undefined), the TGI in [1] was 35.5 µM; in [2], 35.5 µM; in [3], over 100 µM; in assay [4] it was 55.3 µM; in assay [5], 59.3 µM; in [6], 43.5 µM. Also, the TGI in assay [7] was found to be 64.9 µM; in assay [8], 61.3 µM; in [9], 45.2 µM.
`CCC12CCC(O)C1N(C)CCC2Sc1ccccc1` (centres undefined): the TGI in assay [1], in assay [2], in [3], in assay [4], in assay [5] and in [6] was over 100 µM throughout. In addition, the TGI in assay [7], in assay [8] and in assay [9] was over 100 µM throughout.
For `COC(=O)C/C(C)=C/[C@@H](O)[C@H]1O[C@@H]2CC/C(Cl)=C/C/C=C(/C)[C@H](OC(C)=O)CC(=O)O[C@@H]1C2`, the GI50 in [1] was 19.1 µM; in assay [2], 1.44 µM; in [3], 2.28 µM; in assay [4] it was 0.875 µM; in [6] it was 1.04 µM; in assay [7], 6.15 µM. Besides, the results for the GI50 in [8] and in assay [9] were 10 µM and 1.07 µM, respectively. In addition, the TGI in assay [1] was over 25 µM; in assay [2], 7.24 µM; in assay [3], 12.7 µM; in assay [4], 3.42 µM; in [6], 5.75 µM; in assay [7], 19.8 µM. For the same compound, the TGI in assay [8] was over 25 µM; in assay [9], 4.61 µM.

Values taken from PubChem BioAssay (NCI).
